Test results reported in publication PMC10111423, “Antimalarial Imidazopyridines Incorporating an Intramolecular Hydrogen Bonding Motif: Medicinal Chemistry and Mechanistic Studies” (ACS Infectious Diseases, 2023).

Legend:
β-hematin = test: β-Hematin inhibition assay (BHIA), cell-free NP-40 mediated; format: biochemical; conditions: mean of n = 3
Protocol: page 20: fold to attain six assay concentrations of 100-0.001 μg/mL. […] was used as the reference compound in this assay. The highest concentration of DMSO, which was used as the negative control, had no measurable effect on cell viability. After 44 hours of exposure of the cells to the test compounds, a solution of MTT was added. This was followed by an additional 4 hours of incubation at 37 °C. The assay plates were centrifuged, medium removed, and DMSO was added to the crystals. The amount of formazan was ascertained by measuring the absorbance at 540 nm. GraphPad Prism software was then used to generate IC50 values through a non-linear dose-response curve analysis. β-Hematin Inhibition Assay 20 mM stock solutions of controls and test compounds were made in DMSO. A solution […] was added to every well in columns 1-11 of a 96-well plate. 140 μL of water and 40 μL of 305.5 μM NP-40 were added to column 12 to mediate the formation of beta-hematin. 20 μL of test compounds (20 mM) were added to column 12 and 100 μL of this solution serially diluted to column 2, leaving column 1 blank (0 μM of test compound). 178.8 μL aliquot of hematin stock was suspended in 20 ml of a 1 M acetate buffer at pH 4.9. 100 μL of this hematin […] pH 7.4 and 50% pyridine) and 60 μL of acetone were added to all wells. The absorbances of plate wells were recorded at 405 nm on a SpectraMax plate reader. Sigmoidal dose-response curves with variable slopes were fitted to the absorbance data using GraphPad Prism to obtain the IC50 values for each compound. In vitro Microsomal Stability Assay The in vitro microsomal stability assay was performed in duplicate in a 96-well micro titre […] individually in human (pool of 50, mixed gender), rat (pool of 711, male Sprague Dawley) and mouse (pool of 1634, male CD1) liver microsomes (final protein concentration of 0.4 mg/mL; Xenotech, Kansas, USA), suspended in 0.1M phosphate buffer (pH 7.4). Incubations were S20

[1] = system: multidrug-resistant (K1) strain of P. falciparum; test: In vitro asexual blood-stage antiplasmodium pLDH assay, K1 strain; format: cell-based; conditions: Plasmodium falciparum, 72 h, n ≥ 3, read-out: In vitro antiplasmodium activity IC50 PfK1 strain
Protocol: Compounds were screened against multi-drug-resistant (K1) and sensitive (NF54) strains of P. falciparum in vitro using a parasite lactate dehydrogenase assay (pLDH) (the method is described fully in the Supporting Information). […]
In vitro Asexual Blood Stage Antiplasmodium Assay
Parasites were cultured as per the method of Trager and Jensen,1 with modifications. IC50 values were determined using parasite lactate dehydrogenase as a marker for survival (Makler […]
et al, 1993). The test samples were prepared to a 10 mmol/L stock solution in 100% DMSO.
Samples were tested as a suspension if not completely dissolved. Further dilutions to the desired starting concentration were freshly prepared in growth media on each occasion of the experiment. The standard antimalarial drugs chloroquine (CQ) and artesunate (Arts) were used as the reference drug in all experiments. A full dose-response was performed for all compounds in a 96-well plate to determine the concentration inhibiting 50% of parasite growth (IC50– value). Test samples were tested at a starting concentration of 6mmol/L, which was then serially diluted 2-fold in growth medium to generate the tested concentration range. The same dilution technique was used for all samples. CQ and Arts were tested from a starting concentration of 1µg/mL. The highest concentration of solvent to which the parasites were exposed was <0.1% and has no measurable effect on the parasite viability (data not shown).
The assay plate was incubated at 37 °C for 72h in a sealed gas chamber under 3% O2 and 4% CO2 with the balance being N2. After 72h, the wells in the assay plate were gently resuspended, and 15µL from each well was transferred to a duplicate plate containing 100µL of Malstat reagent and 25µL of nitroblue tetrazolium solution in each well. Plates were left to develop for 20 minutes in the dark and then absorbance of each well was quantified using a spectrophotometer at 620nm wavelength.
The remaining population of parasites at each concentration of the test compound was determined by comparing the absorbance of each well to the absorbance of a well containing […]
the drug-free control. […]
The initial 100 µg/mL solution is serially diluted 10-

Structure (SMILES)	IC50 (β-hematin) [µM]	IC50 [1] [µM]
CCN(CCNc1cc2[nH]c(C3CC3)nc2cn1)Cc1ccc(Cl)cc1O [Compound 5, 5-Chloro-2-(((2-((2-cyclopropyl-1H-imidazo[4,5-c]pyridin-6-yl)amino)ethyl)(ethyl)amino)methyl)phenol]	16	0.48
CCN(CCNc1cc2[nH]c(C3CCCC3)nc2cn1)Cc1ccc(Cl)cc1O [Compound 1, 5-Chloro-2-(((2-((2-cyclopentyl-1H-imidazo[4,5-c]pyridin-6-yl)amino)ethyl)(ethyl)amino)methyl)phenol]	18	1.35
CCN(CCNc1cc2[nH]c(C3(C)CC3)nc2cn1)Cc1ccc(Cl)cc1O [Compound 6, 5-Chloro-2-((ethyl(2-((2-(1-methylcyclopropyl)-1H-imidazo[4,5-c]pyridin-6-yl)amino)ethyl)amino)methyl)phenol]	33	6

The next lines start with the values.

IC50 (β-hematin) [µM]	IC50 [1] [µM]	Structure (SMILES)
65	0.36	CCN(CCNc1cc2[nH]c(-c3ccc(C(F)(F)F)nc3)nc2cn1)Cc1ccc(Cl)cc1O [Compound 19, 5-Chloro-2-((ethyl(2-((2-(6-(trifluoromethyl)pyridin-3-yl)-1H-imidazo[4,5-c]pyridin-6-yl)amino)ethyl)amino)methyl)phenol]
9	0.1	CCN(CCNc1cc2[nH]c(-c3cccc(C(F)(F)F)c3)nc2cn1)Cc1ccc(Cl)cc1O [Compound 14, 5-Chloro-2-((ethyl(2-((2-(3-(trifluoromethyl)phenyl)-1H-imidazo[4,5-c]pyridin-6-yl)amino)ethyl)amino)methyl)phenol]
